Source: patent publication US20090143335A1, “MODIFIED ABSORPTION FORMULATION OF GABOXADOL” (H. LUNDBECK A/S, priority 2007, published 2009)

How the values were obtained:
[1] = Pharmacokinetics of gaboxadol in beagle dogs, IV or PO, with or without co-administered tryptophan; format: in vivo; details: dog; for bioavailability: Fa (bioavailability)
Procedure: Prior to commencement of the studies the protocols were approved by the Animal Welfare Committee, appointed by the Danish Ministry of Justice and all animal procedures were carried out in compliance with EC Directive 86/609/EEC, the Danish law regulating experiments on animals and NIH Guidelines for the Care and Use of Laboratory Animals. 6 full-grown male beagle dogs (body weight 15.9-21.7 kg) were selected and allocated into a roman quadrant design and assigned to receive all 6 formulations of gaboxadol hydrochloride randomly during 6 weeks. The dogs were fasted 20-24 hours before the initiation of the experiment and fed again 10 hours after the administration. The gaboxadol dose was given either as an intravenous injection (1.0 ml/kg) or as an oral solution given by gavage (5.0 ml/kg) directly into the stomach using a soft tube. All dogs received 2.5 mg/kg gaboxadol. In addition to gaboxadol, the oral formulations contained 0, 2.5, 10.0, 50.0 or 150.0 mg/kg of tryptophan to ensure simultaneous co-administration of the two compounds. All solutions were adjusted to a pH of 5.2 and osmolarity was checked with a Vapro vapour pressure osmometer (model 5520, Wescor Inc. Logan, Utah, USA), the intravenous solutions were adjusted to isoosmolarity with glucose. Blood samples of 2.0 ml were taken from the vena cephalica by individual vein puncture and collected into Eppendorf tubes containing 200 IE heparin as anticoagulant. Samples were collected before administration of gaboxadol and after 5, 15, 30, 60, 90 minutes and 2, 3, 4, 6, 8 and 10 hours after gaboxadol administration. The plasma was harvested immediately by centrifugation for 15 minutes at 2200 g and 4-8° C. and stored at −80° C. until further analysis. After each day of gaboxadol dosing the animals had 6 days of washout.
(§1) The pharmacokinetics (PK) was evaluated in WinNonlin. Plasma concentrations curves of the animals dosed intravenously were fitted to a 2-compartment model whereas the data from animals dosed orally were analysed in a non-compartment model. Statistical analysis was done in Sigma Stat.
Gaboxadol was extracted from plasma and HBSS^+ samples by liquid extraction. 100 μl HBSS^+ (80 μl purified water were added to the 20 μl samples) or 100 μl plasma samples were mixed with 25 μl intern standard (d4-gaboxadol) and 25 μl purified water. Protein precipitation was carried out by addition of 400 μl cold acetonitrile. After centrifugation at 10,000 g in 15 minutes, 425 μl supernatant was transferred to glass tubes and evaporated to dryness under nitrogen at 45° C. The samples were re-solved in 80 μl methanol/acetonitrile (30:70), whirl mixed for 10 minutes and centrifuged in 3 minutes at 3000 rpm, before transferal to medium well plates and placed at 10° C. in the autosampler. Gaboxadol concentration in the extracted samples was subsequently quantified by hydrophilic interaction chromatography (HILIC-chromatography) followed by MS/MS detection. The LC system comprised of an Agilent 1100 series pump and degasser, a CTC Analytics interface transferred data to the computer and a Peltier Thermostat and HTC Pal autosampler handled the samples. An Asahipak amino column, (NH2P-50, 150×2 mm) from Phenomenex was used for the chromatographic separation with a mobile phase of 20.0 mM ammoniumacetat pH=4:acetonitrile (30:70) and a flow rate of 0.2 ml/min. 20 μL samples were injected onto the column, which was kept at room temperature. The total runtime was 10 minutes with the first 5 minutes of elution let to waste. The elution time of gaboxadol on the column was approximately 8 minutes. The MS/MS system used consisted of a Sciex API 4000 MS/MS detector with a Turbo Ion Spray and Turbo V source (Applied Biosystems). The detection was performed in negative ionization mode where gaboxadol (precursor 139.1 Da, product 110.1 Da) and d4-gaboxadol (precursor 143.0, product 112.2 Da) were measured by multiple-reaction-monitoring (MRM). […]

[2] = Pharmacokinetics of gaboxadol in rats after PO dosing, with or without 5-HTP pre-incubation; format: in vivo, Sprague-Dawley rats; details: rat; for Cmax: Cmax ± S.E.M.; for Tmax: Tmax ± S.E.M.
Procedure: as §1
(§2) Gaboxadol was extracted from plasma and HBSS^+ samples by liquid extraction. 100 μl HBSS^+ (80 μl purified water were added to the 20 μl samples) or 100 μl plasma samples were mixed with 25 μl intern standard (d4-gaboxadol) and 25 μl purified water. Protein precipitation was carried out by addition of 400 μl cold acetonitrile. After centrifugation at 10,000 g in 15 minutes, 425 μl supernatant was transferred to glass tubes and evaporated to dryness under nitrogen at 45° C. The samples were re-solved in 80 μl methanol/acetonitrile (30:70), whirl mixed for 10 minutes and centrifuged in 3 minutes at 3000 rpm, before transferal to medium well plates and placed at 10° C. in the autosampler. Gaboxadol concentration in the extracted samples was subsequently quantified by hydrophilic interaction chromatography (HILIC-chromatography) followed by MS/MS detection. The LC system comprised of an Agilent 1100 series pump and degasser, a CTC Analytics interface transferred data to the computer and a Peltier Thermostat and HTC Pal autosampler handled the samples. An Asahipak amino column, (NH2P-50, 150×2 mm) from Phenomenex was used for the chromatographic separation with a mobile phase of 20.0 mM ammoniumacetat pH=4:acetonitrile (30:70) and a flow rate of 0.2 ml/min. 20 μL samples were injected onto the column, which was kept at room temperature. The total runtime was 10 minutes with the first 5 minutes of elution let to waste. The elution time of gaboxadol on the column was approximately 8 minutes. The MS/MS system used consisted of a Sciex API 4000 MS/MS detector with a Turbo Ion Spray and Turbo V source (Applied Biosystems). The detection was performed in negative ionization mode where gaboxadol (precursor 139.1 Da, product 110.1 Da) and d4-gaboxadol (precursor 143.0, product 112.2 Da) were measured by multiple-reaction-monitoring (MRM). The signals were linear between 0.5 and 2500.0 ng/ml and the limit of quantification by this procedure was 0.5 ng/ml. The software was from Analyst™ (Applied Biosystem, version 4.0).
0.05 or 0.5 mg gaboxadol as well as 0.0 or 20.0 mg 5-HTP was dissolved in purified water pr ml. at room temperature and placed on ice in ultrasound for 10 min. The formulations were adjusted to pH 4-5 and with NaOH/HCl and made isotonic by addition of mannitol. pH of all solutions was adjusted to pH above 4.0 and below 5.0, the osmolality was adjusted with mannitol to 280 mmol/kg.
(§3) Male Sprague-Dawley rats (Charles River Laboratories, Wilmington, Mass., USA) of 220-240 gram were housed and acclimated for 7 days before entering the experiments. The rats were maintained on standard food and water until 16-20 hours prior to dosing when food was retrieved to insure complete gastric emptying before experiments were conducted. Water was available to the animals until beginning of experiment and again 2 hours after. Each animal was randomly assigned to receive either one of the intravenous or oral formulations.
6 parallel groups of rats (n=6) were given isotonic solutions of 0.5 or 5.0 mg/kg of gaboxadol together with saline or 200.0 mg/kg 5-HTP, by oral gavage (10.0 ml/kg). The suspensions of 5-HTP were given as a pre-incubation 30 min. prior to the gaboxadol solutions.
(§4) Blood samples of 0.2 ml were taken from the tail vein by individual vein puncture and collected into plasma collection tubes containing 20 IE heparin. Samples were collected at 5, 15, 30, 45, 60 minutes and after 2, 3, 4, 6, 8 hours after gaboxadol administration. The plasma was harvested immediately by centrifugation for 10 min. at 3.600 g and stored at −80° C. until further analysis.

[3] = Pharmacokinetics of gaboxadol in rats after IV dosing, with or without 5-HTP pre-incubation; format: in vivo, Sprague-Dawley rats; details: rat; for Ke ± S.E.M.: IV gaboxadol 2.5 mg/kg
Procedure: as §1, §2, §3, §4
0.25 mg gaboxadol as well as 0.0 or 10.0 mg 5-HTP was dissolved in purified water pr ml. at room temperature and placed on ice in ultrasound for 10 min. The solutions of gaboxadol used for intravenous injection was filtered through a 0.45 μm filter.
Animals were administered with 100.0 mg/kg 5-HTP or saline by oral gavage 30 min. prior to intravenous injection of 2.5 mg/kg gaboxadol into the tail vein […].

[4] = male, beagle, in vivo, po, 2.5 mg/kg
[5] = male, beagle, in vivo, po, 10 mg/kg
[6] = male, beagle, in vivo, po, 50 mg/kg
[7] = male, beagle, in vivo, po, 150 mg/kg
[8] = male, Sprague-Dawley, in vivo, po
[9] = male, Sprague-Dawley, in vivo, po, 0.5 mg/kg
[10] = male, Sprague-Dawley, in vivo, po, 5 mg/kg
[11] = male, Sprague-Dawley, in vivo, iv, 2.5 mg/kg

Compound: Oc1noc2c1CCNC2 [gaboxadol, 4,5,6,7-tetrahydroisoxazolo [5,4-c]pyridine-3-ol]
- decrease of maximal gaboxadol plasma concentration, Cmax, by tryptophan coadministration ([1]; PO 2.5 mg/kg gaboxadol, presence vs absence of 150 mg/kg tryptophan, p<0.001): 57%
- ke ([1]; group A, IV 2.5 mg gaboxadol/kg, tryptophan 0 mg/kg): 1.02 ± 0.14 h⁻¹
- ke ([1]; group B, PO 2.5 mg gaboxadol/kg, tryptophan 0 mg/kg): 0.46 ± 0.02 h⁻¹
- ke ([1]; group C, PO 2.5 mg gaboxadol/kg, tryptophan 2.5 mg/kg): 0.50 ± 0.03 h⁻¹
- ke ([1]; group D, PO 2.5 mg gaboxadol/kg, tryptophan 10 mg/kg): 0.44 ± 0.03 h⁻¹
- ke ([1]; group E, PO 2.5 mg gaboxadol/kg, tryptophan 50 mg/kg): 0.50 ± 0.03 h⁻¹
- ke ([1]; group F, PO 2.5 mg gaboxadol/kg, tryptophan 150 mg/kg): 0.48 ± 0.07 h⁻¹
- effect of tryptophan coadministration on elimination rate constants (ke) and clearance (CL) of gaboxadol ([1]; in vivo, po): did not change
- clearance ([1]; male, beagle, in vivo, iv, 2.5 mg/kg): 7.6 mL/min/kg
- AUC ([1]; male, beagle, in vivo, iv, 2.5 mg/kg, AUC): 5620 ± 377 ng·h/mL
- Cmax ([1]; male, beagle, in vivo, iv, 2.5 mg/kg, Cmax): 5490 ± 404 ng/mL
- AUC [1, 4]: 4760 ± 350 ng·h/mL
- Cmax [1, 4]: 2473 ± 178 ng/mL
- Fa (bioavailability) [1, 4]: 86.1%
- Tmax [1, 4]: 21 ± 7.8 min
- AUC ([1]; male, beagle, in vivo, po, 2.5 mg/kg, AUC): 4720 ± 248 ng·h/mL
- Cmax ([1]; male, beagle, in vivo, po, 2.5 mg/kg, Cmax): 2500 ng/mL
- bioavailability [1, 4]: 85.3 ± 5.7%
- Tmax ([1]; male, beagle, in vivo, po, 2.5 mg/kg, Tmax): 27.6 min
- CL [1, 5]: 10.8 ± 0.983 mL/min/kg
- AUC ([1]; male, beagle, in vivo, po, 10 mg/kg, AUC): 4030 ± 339 ng·h/mL
- Cmax ([1]; male, beagle, in vivo, po, 10 mg/kg, Cmax): 1870 ± 114 ng/mL
- bioavailability [1, 5]: 75%
- Tmax ([1]; male, beagle, in vivo, po, 10 mg/kg, Tmax): 32.4 ± 9 min
- CL [1, 6]: 9.82 ± 0.433 mL/min/kg
- AUC ([1]; male, beagle, in vivo, po, 50 mg/kg, AUC): 4290 ± 211 ng·h/mL
- Cmax ([1]; male, beagle, in vivo, po, 50 mg/kg, Cmax): 1660 ± 37 ng/mL
- bioavailability [1, 6]: 78.2 ± 6.3%
- Tmax ([1]; male, beagle, in vivo, po, 50 mg/kg, Tmax): 27.6 ± 7.2 min
- CL [1, 7]: 11.7 ± 2.53 mL/min/kg
- AUC ([1]; male, beagle, in vivo, po, 150 mg/kg, AUC): 4400 ± 801 ng·h/mL
- Cmax ([1]; male, beagle, in vivo, po, 150 mg/kg, Cmax): 1420 ng/mL
- bioavailability [1, 7]: 79.7 ± 14.5%
- Tmax ([1]; male, beagle, in vivo, po, 150 mg/kg, Tmax): 90 min
- Tmax ± S.E.M. [2, 8]: 43 min
- Cmax ± S.E.M. [2, 9]: 294 ± 39.4 ng/mL
- Cmax [2, 9]: 273 ± 26.7 ng/mL
- Tmax [2, 9]: 16 min
- Cmax ± S.E.M. [2, 10]: 1854 ± 509.4 ng/mL
- Cmax [2, 10]: 2060 ± 153 ng/mL
- Tmax [2, 10]: 20 min
- Tmax [2, 8]: 63 min
- AUC increase compared to the control group ([2]; PO gaboxadol 0.5 mg/kg with 5-HTP 200 mg/kg vs without): 540%
- AUC increase compared to the control group ([2]; PO gaboxadol 5.0 mg/kg with 5-HTP 200 mg/kg vs without): 330%
- gaboxadol elimination rate constant when 5-HTP was present, relative to control ([2]; PO gaboxadol, 5-HTP 200 mg/kg): about 25%
- AUC-dose-linearity: AUC of group J relative to group G ([2]; in vivo, 5 mg/kg): ~10 times
- Ke ± S.E.M. ([2]; treatment G, PO gaboxadol 0.5 mg/kg, no 5-HTP): 0.0164 ± 0.0021 min⁻¹
- Ke ± S.E.M. ([2]; treatment H, PO gaboxadol 0.5 mg/kg, 5-HTP 200.0 mg/kg 30 min before): 0.0038 ± 0.0004 min⁻¹
- Ke ± S.E.M. ([2]; treatment I, PO gaboxadol 5.0 mg/kg, no 5-HTP): 0.0199 ± 0.0017 min⁻¹
- Ke ± S.E.M. ([2]; treatment J, PO gaboxadol 5.0 mg/kg, 5-HTP 200.0 mg/kg 30 min before): 0.0058 ± 0.0008 min⁻¹
- Cmax ± S.E.M. [3, 11]: 4109 ± 302.6 ng/mL
- T1/2 [3, 11]: 44 min
- Tmax [3, 11]: 5 min
- Tmax ± S.E.M. [3, 11]: 5 ± 0.0 min
- Cmax ([3]; male, Sprague-Dawley, in vivo, iv, 2.5 mg/kg, Cmax ± S.E.M.): 2850 ± 312 ng/mL
- half-life ([3]; male, Sprague-Dawley, in vivo, iv, 2.5 mg/kg, T1/2): 26 min
- AUC-dose-linearity: AUC of group G relative to group K ([3]; in vivo): five times
- AUC of group K relative to group L ([3]; in vivo, iv, 2.5 mg/kg): ~3 times
- Ke ± S.E.M. ([3]; treatment K, no 5-HTP): 0.0266 ± 0.0008 min⁻¹
- Ke ± S.E.M. ([3]; treatment L, 5-HTP 100 mg/kg by oral gavage 30 min prior): 0.0181 ± 0.0030 min⁻¹
